Where “and” joins values, the source holds several entries; their conditions need not be identical. Identical values can stand only once.
Columns and labels:
[1] = MTT cytotoxicity assay on non-infected Vero cells; assay type: cell-based; details: Chlorocebus sabaeus (African green monkey), non-infected Vero cells (ATCC CCL-81), 72 h incubation
Source text: The Vero cell line (ATCC® CCL-81), derived from the kidney tissue of the Green African monkey (Chlorocebus sabaeus), was utilized as a model of non-infected cells in the cytotoxicity assay. The cells were thawed from stocks maintained in liquid nitrogen at the National Reference Laboratory (NRL) for Toxoplasmosis and cultured in D10 medium—Advanced Dulbecco’s Modified Eagle Medium (DMEM) (Thermo Fisher Scientific, Waltham, MA, USA), supplemented with 10% bovine calf serum (BCS) (Sigma-Aldrich, St. Louis, MO, USA), 1% HEPES buffer (Thermo Fisher Scientific, Waltham, MA, USA), and 1% penicillin-streptomycin (Pen/Strep) solution (Thermo Fisher Scientific, Waltham, MA, USA) in T25 and T75 flasks. Depending on confluency, cells were subcultured 1–2 times per week.
The MTT colorimetric assay, a widely used method for assessing the cytotoxicity of newly synthesized compounds, was used to evaluate the toxic effect of AADs on non-infected cells. This assay is based on the ability of metabolically active, viable cells to reduce the yellow 3-(4,5-dimethylthiazol-2-yl)-2,5-diphenyltetrazolium bromide (MTT) reagent to purple formazan. The number of viable cells in the well is directly proportional to the intensity of the resulting color. The MTT assay was performed according to the manufacturer’s instructions using the In Vitro Toxicology Assay Kit (MTT-based, Sigma-Aldrich, St. Louis, MO, USA), with a protocol specifically modified to accommodate the cell line and derivatives analyzed in this study.
In brief, Vero cells were seeded in a 96-well plate, at a density of 25,000 cells per well and incubated for 24 h at 37 °C in a 5% CO2 atmosphere. After the incubation period, the supernatant was removed from each well and replaced with serial dilutions of the analyzed derivatives, as well as with the combination of PYR+SDZ (Sigma-Aldrich, St. Louis, MO, USA) as a positive control. All compounds were investigated in five different concentrations, ranging from 100 μM to 6.25 μM, using a two-fold serial dilution method. The positive control was tested in the range of 0.4 μM + 100 μM to 0.025 μM + 6.25 μM (ratio of PYR+SDZ adjusted according to the literature). In negative control wells, containing only non-infected Vero cells, the discarded supernatant was replaced by a new amount of D10 medium. Blank wells, used to account for any background signal from the colored culture medium, contained only D10 medium. All samples, including controls and blanks, were analyzed in triplicates.
Samples containing Vero cells with added AADs or the positive control were incubated for 72 h. After incubation, the supernatant was discarded, and a new amount of D10 medium (100 μL) was added to each well. The MTT reagent (10 μL, […]) was subsequently added to each well, and the plates were incubated for an additional four hours. After the incubation period, the supernatant was discarded, and the resulting formazan crystals were dissolved using the solubilizing solution from the In Vitro Toxicology Assay Kit. Absorbance was measured at 540 nm using an ELISA plate reader (Multiskan EX, Thermofisher Scientific, Waltham, MA, USA). Data analysis was conducted, and CC50 values (cytotoxic concentration used to lyse/inhibit average of 50% of cells) were obtained using nonlinear regression in GraphPad Prism 10.4.1 (GraphPad Software Inc., La Jolla, CA, USA).

[2] = system: T. gondii RH strain tachyzoites; experiment: Anti-T. gondii activity screening (viable tachyzoite count, Trypan blue); assay type: cell-based, Toxoplasma gondii; details: 25 µM, 24 h, compared to untreated control
Method: T. gondii RH strain tachyzoites were obtained from the NRL for Toxoplasmosis, Institute for Medical Research, Belgrade, Serbia, where the RH strain is regularly maintained via passages using female Swiss-Webster mice twice a week (Ethical license no. 323-07-02445/2014-05/1).
The anti-T. gondii activity of the AADs was evaluated according to previously described methodology, slightly modified by using the DMEM culture medium supplemented with 10% bovine calf serum (BCS) without antibiotics (referred to as modified D10 medium). RH strain T. gondii tachyzoites were harvested from the intraperitoneal exudate of infected mice during routine passage of the strain at the NRL for toxoplasmosis. The sample (intraperitoneal lavage fluid of RH strain-infected mice) was then washed three times using Dulbecco Phosphate Buffered Saline (DPBS) (Thermofisher Scientific, Waltham, MA, USA) and centrifuged at 2.500 rpm for five minutes to obtain a pellet consisting of RH strain tachyzoites only. The pellet was then resuspended, and the parasite count was determined by Trypan blue vital staining, using a Bürker-Türk counting chamber. Tachyzoites were resuspended in an appropriate volume of DMEM culture medium to achieve the required tachyzoite concentration. A suspension of tachyzoites (2 × 10^6 tachyzoites/well, in 100 μL volume) was then seeded into a 96-well microplate and exposed to a 25 µM concentration of 10 AADs, as well as a combination of PYR+SDZ, for 24 h. All samples, including the untreated control consisting of RH strain tachyzoites in a modified D10 culture medium, were tested in triplicates.
After 24 h, 20 µL of sample was collected from each well, mixed with an equal volume of Trypan blue stain, and the number of viable tachyzoites was determined using a Bürker-Türk counting chamber. The reduction in the number of viable tachyzoites compared to untreated control was calculated using the following formula:(1) Reduction %=100%−(median value of number of viable tachyzoites in test wells/median value of number of viable tachyzoites in control wells×100%)

[3] = Solubility by visual inspection; assay type: physicochemical; details: for Solubility on dilution of DMSO solution in pH 7.4 phosphate buffer: diluted up to 10,000 times in pH 7.4 phosphate buffer; for solubility: organic solvent or mixture, DMSO, tested up to 30 mM, read-out: Solubility in DMSO (clear and transparent solutions)
Method: Solubility and stability testing was conducted for three of the derivatives, evaluated as potential in vivo testing candidates, namely AAD1, AAD2 and AAD8. Solubility was evaluated using a visual inspection method, checking the clarity and opalescence of different concentrations (up to 30 mM) of dimethyl sulfoxide (DMSO) solutions of the mentioned AADs, as well as of their further dilutions with the pH 7.4 phosphate buffer (100-, 1000- and 10,000-times dilutions).

[4] = Solution stability by HPLC; assay type: physicochemical; details: pH 2 (0.01 M HCl) 2 h; pH 5.5 and pH 7.4 phosphate buffer 4 h
Method: Solubility and stability testing was conducted for three of the derivatives, evaluated as potential in vivo testing candidates, namely AAD1, AAD2 and AAD8. The stability of the synthesized AADs was evaluated in mediums with three different pH values: 2 (0.01 M HCl), 5.5 (phosphate buffer) and 7.4 (phosphate buffer). Stability was tested by employing a HPLC method, using an Agilent 1200 chromatograph (Agilent Technologies, Palo Alto, CA, USA) and Zorbax Extend C18 column (Agilent Technologies, Palo Alto, CA, USA). The mobile phase consisted of acetonitrile and water (pH was adjusted to 3.2 using phosphoric acid) at a ratio of 30:70 (v/v) for all three AADs. Column temperature was adjusted to 25 °C, while the flow rate was […]. UV detection was performed at 220, 230, 254, 265 and 280 nm. In short, samples (solutions of the investigated AADs in the appropriate mediums) were injected twice into the HPLC column: the first time right after the preparation of the solutions, and the second time after the stability testing interval—two hours for the pH 2 solution and four hours for the pH 5.5 and 7.4 solutions. At the end of the incubation intervals, the decrease in peak areas and occurrence of additional peaks on chromatograms were analyzed in comparison with the chromatograms obtained right after the preparation of the solutions.

Row | SMILES | CC50 at 72 h [1] | Viability Reduction of T. gondii Tachyzoites [2] | Solubility on dilution of DMSO solution in pH 7.4 phosphate buffer [3] | solubility [3] | Solution stability (HPLC peak area, additional peaks) [4]
1 | O=C(O)[C@H](Cc1ccccc1)Nc1c2ccccc2nc2ccccc12 [AAD9, (S) 2-(acridin-9-ylamino)-3-phenylpropanoic acid] | 50.2 µM |  |  |  | 
2 | COC(=O)CCCCCCCNc1c2ccccc2nc2ccccc12 [AAD3] | 88.4 µM | 15.2% |  |  | 
3 | O=C(O)CCNc1c2ccccc2nc2ccccc12 [AAD10, 3-(acridin-9-ylamino) propanoic acid] | 177 µM | 21.9% |  |  | 
4 | COC(=O)C(Cc1c[nH]cn1)Nc1c2ccccc2nc2ccccc12 (stereo not shown) [AAD4] | 134 µM | 4.5% |  |  | 
5 | O=C(O)CCCNc1c2ccccc2nc2ccccc12 [AAD8, 4-(acridin-9-ylamino) butanoic acid] | 102 µM | 33.3% | maintaining solubility | ≥ 30 mM | stable
6 | O=C(O)CCCCCCCNc1c2ccccc2nc2ccccc12 [AAD6, 8-(acridin-9-ylamino) octanoic acid] | 154 µM | 22.0% |  |  | 
7 | CCOC(=O)CCCCCNc1c2ccccc2nc2ccccc12 [AAD1] | 41.7 µM | 24.7% | maintaining solubility | ≥ 30 mM | stable
8 | O=C(O)CCCCCNc1c2ccccc2nc2ccccc12 [AAD7, 6-(acridin-9-ylamino) hexanoic acid] | 93 µM | 20.9% and 20.5% |  |  | 
9 | Cn1cc(CC(Nc2c3ccccc3nc3ccccc23)C(=O)O)c2ccccc21 (stereo not shown) [AAD2] | 60.2 µM |  | maintaining solubility | ≥ 30 mM | stable
